Experiments:
Assay in all cases: Fungicide activity for wood fungicide (rating of fungi growth on treated wood)
Format in all cases: cell-based
Details in all cases: beech specimens dipped 3 min in fungicide solution, 4 weeks culture; rating 0 (no growth) to 3; mean of 6 specimens
[1] = tested on: Gliocladium virens Miller, Gidden & Fosteb IFO 6355
Protocol: (§1) This test was conducted according to Specification No.2 of Japan Wood Preserving Association, enacted in 1979 and titled "Test methods of fungicide activity for wood fungicide".
(§2) • ① Aspergillus niger van Tieghem IFO 6341 = ATCC 6275 • ② Penicillium funiculosum Thom (formerly : Penicillium luteum Zukal) IFO 6345 = ATCC 9644 • ③ Rhizopus javanicus Takeda (formerly : Rhizopus nigricans Ehrenberg S.N. 32) IFO 6354 • ④ Aureobasidium pullulans (de Bary) Arnaud IFO 6353 = IAM (H. Iizuka, F-24) • ⑤ Gliocladium virens Miller, Gidden & Fosteb IFO 6355 = ATCC 9645 (formerly : Trichoderma viride, T.I.)
(§3) The fungi ① , ② , ③ and ⑤ are classified as fungi imperfecti, and the fungus ④ as blue stain fungus.
(§4) The Culture medium comprised the potato-sap agar culture medium (specified in the Japan Industrial Standard (JIS) Z 2911- 1960) of 50 ml, put in the conical flask of 100 ml, sterilized by steam at 1.4-1.6 kgf/cm² .G (137.2-156.8 KPa) for 30 minutes.
(§5) The fungi to be used were inoculated into the culture medium specified in the previous section and were cultured at 26 ± 2 °C under the relative humidity of 70-80 % for two weeks.
(§6) The potato sap of 50 ml, sterilized, cooled to room temperature and to which dioctyl sodium sulfosuccinate, a wetting agent, was added so as to become 0.005 %, was dropped to the fully breeding fungi layer, and was agitated with a platinum spatula in such a way that the spore was torn off. The resulting liquid filtered by sterilized gauze was the spore suspension.
(§7) 3-5-1 A Petri dish measured 90-100 mm in diameter and 20 mm in height.
(§8) 3-5-2 Agar liquid (which has no nutrients) of 2 % sterilized by steam was dropped onto the Petri dish sterilized by dry heat, and then was solidified.
(§9) 3-5-3 Three mm diameter sterilized glass bars or plastic nets made of polypropylene, etc. were placed to prevent the test specimens from touching with agar directly.
(§10) 3-6-1 The type of trees for wood specimens was beech. The cross section was of grain face, and the dimension was 20 mm wide 3 mm thick and 50 mm long.
(§11) 3-6-2 Wood specimens were supplied with nutrients in such a way that they were dipped into the potato-sap (the one in the section 3-2, but agar was not added) for 3 minutes.
(§12) 3-6-3 Nutrient-supplied wood specimens, after drying at 60 °C, were used for testing immediately. They were temporarily stored at 0 °C, but they were served to tests as soon as possible.
(§13) The test specimens were of two types, treated and untreated speciments. The treated specimens referred to the one treated with fungicide. The untreated specimens were of two types, the one really untreated and the other treated with solvent only.
(§14) 3-7-2-1 Nutrients-supplied wood specimens were dried at 60 ± 2 °C, and then their weights (W₀) were measured. Test specimens of 10-20 pieces were piled up in a one liter beaker in such a way that two specimens constant space apart from each other were alternately put on the other two specimens also constant space apart from each other. On the top of the two specimens, a weight was placed. Through the test specimens thus arranged, the fungicide solution was introduced. The level of the fungicide solution was one centimeter above the top specimens. The test specimens were dipped for three minutes after the fungicide solution introduction.
(§15) After finishing dipping, the test specimens were wiped softly, and then the weights (W₁) were measured immediately. As control experiment, the same procedure as the above was done using solvent without fungicide.
(§16) 3-7-2-2 The amounts of solution pick-up and fungicide pick-up were calculated with the following equations: The amount of solution absorption: RL = W₁ - W₀ [formula] The amount of fungicide absorption: Rc = RL × fungicide concentration [formula] 3-7-2-3 Wood specimens treated were placed without contacting each other, then were air-dried for two days, and then served as the treated test specimens. […]

[2] = tested on: Aureobasidium pullulans (de Bary) Arnaud IFO 6353
Protocol: as §1, §2, §3, §4, §5, §6, §7, §8, §9, §10, §11, §12, §13, §14, §15, §16

[3] = tested on: Rhizopus javanicus Takeda IFO 6354
Protocol: as §1, §2, §3, §4, §5, §6, §7, §8, §9, §10, §11, §12, §13, §14, §15, §16

[4] = tested on: Aspergillus niger van Tieghem IFO 6341
Protocol: as §1, §2, §3, §4, §5, §6, §7, §8, §9, §10, §11, §12, §13, §14, §15, §16

[5] = tested on: Penicillium funiculosum Thom IFO 6345
Protocol: as §1, §2, §3, §4, §5, §6, §7, §8, §9, §10, §11, §12, §13, §14, §15, §16

SMILES | Average rating value, A₅ : Gliocladium virens (IFO 6355) [1] | Average rating value, A₄ : Aureobasidium pullulans (IFO 6353) [2] | Average rating value, A₃ : Rhizopus javanicus (IFO 6354) [3] | Average rating value, A₁ : Aspergillus Niger (IFO 6341) [4] | Average rating value, A₂ : Penicillium funiculosum (IFO 6345) [5]
CC(C)(C)NC(=O)C#CI [Example 1, N-(tert-Butyl)-3-iodopropiolamide] | 0.0 | 0.0 | 2.0 | 0.0 | 0.0
CCCCCCCCCCNC(=O)C#CI [Example 2, N-(n-Decyl)-3-iodopropiolamide] | 1.3 | 0.0 | 3.0 | 3.0 | 2.0
CCCCNC(=O)C#CI [Example 4, N-(n-Butyl)-3-iodopropiolamide] | 1.0 | 0.0 | 0.0 | 0.0 | 0.0
CCC(C)NC(=O)C#CI (centres unmarked) [Example 5, N-(sec-Butyl)-3-iodopropiolamide] | 1.3 | 0.0 | 3.0 | 0.0 | 0.0
CC(C)CNC(=O)C#CI [Example 6, N-Isobutyl-3-iodopropiolamide] | 0.0 | 0.0 | 3.0 | 0.0 | 0.0
CCCCCNC(=O)C#CI [Example 7, N-(n-Pentyl)-3-iodopropiolamide] | 1.8 | 0.0 | 3.0 | 0.2 | 0.2
CCCCCCNC(=O)C#CI [Example 8, N-(n-Hexyl)-3-iodopropiolamide] | 0.2 | 0.0 | 3.0 | 0.3 | 0.0
CCCCCCCNC(=O)C#CI [Example 9, N-(n-Heptyl)-3-iodopropiolamide] | 1.5 | 0.3 | 3.0 | 1.7 | 1.0
CCCCCCCCNC(=O)C#CI [Example 10, N-(n-Octyl)-3-iodopropiolamide] | 2.2 | 0.0 | 3.0 | 2.7 | 0.3
CCCCCCCCCNC(=O)C#CI [Example 11, N-(n-Nonyl)-3-iodopropiolamide] | 2.8 | 1.7 | 3.0 | 3.0 | 1.8
